Structures can show the parent of a compound that is named as a salt.
Tests used:
normal human plasma = experiment: Fibrinolysis enhancing activity by measurement of time of plasma clot lysis; type: biochemical; details: normal human plasma with tPA; concentration that achieves 50% of 1/2 LT
Procedure: To a 96-well plate, 20 μL/well HBS, 50 μL/well normal human plasma, 10 μL/well compound solution (the compound solution was prepared by dissolving the compound in HBS, followed by serial dilution with this buffer), and 10 μL/well tPA (Activacin (Kyowa Hakko Kirin Co., Ltd.) was adjusted to 600,000 U/mL with a lysis solution included therein, followed by dilution with HBS) were added, and the mixture was stirred. Then, 10 μL/well reaction solution A (13.8 U/mL human thrombin, 170 mM CaCl2, and 0.9 U/mL thrombomodulin) was added thereto, and the mixture was stirred again. The absorbance at 405 nm was measured using a plate reader at 30-second intervals, with the temperature kept at 37° C. to measure the extent of coagulation. […] A concentration that achieves 50% of 1/2 LT was calculated as EC50 from the relationship between the concentration of the test substance and 1/2 LT. Compound A (compound of Example 7 in the pamphlet of International Publication No. WO 2002/014285) was used as a control.

TAFIa = TAFIa (Homo sapiens (Human), UniProt Q96IY4); experiment: Determination of TAFIa enzyme inhibitory activity; type: biochemical; details: substrate furylacryloyl-alanyl-lysine (FAAK), absorbance at 330 nm
TAFIa, sequence (Q96IY4 115-423): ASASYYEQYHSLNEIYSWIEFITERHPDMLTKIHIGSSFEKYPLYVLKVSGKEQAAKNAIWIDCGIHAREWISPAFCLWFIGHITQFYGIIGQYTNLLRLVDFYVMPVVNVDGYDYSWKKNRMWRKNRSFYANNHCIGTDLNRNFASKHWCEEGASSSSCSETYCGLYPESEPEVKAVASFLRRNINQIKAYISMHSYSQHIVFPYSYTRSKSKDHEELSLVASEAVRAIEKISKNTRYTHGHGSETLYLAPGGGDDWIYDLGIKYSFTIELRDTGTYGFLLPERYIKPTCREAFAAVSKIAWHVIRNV
Procedure: HEPES buffered saline (20 mM HEPES, 150 mM NaCl, pH 7.4; hereinafter, referred to as HBS) was used in the preparation of a reaction solution. To 12 μL of a 250 μg/mL TAFI solution, 30 μL of an HBS solution containing 4 U/mL human thrombin, 12 U/mL rabbit lung thrombomodulin, and 12 mM CaCl2 was added, and the mixture was gently stirred. Then, TAFI was activated at room temperature. Ten minutes later, thrombin was neutralized by the addition of 10 μL of 100 μM PPACK (thrombin inhibitor) to terminate the activation of TAFI. The formed TAFIa was stored in ice and diluted immediately before use in determination with 2050 μL of an HBS solution containing BSA (bovine serum albumin) adjusted to 0.1% in terms of the final concentration.
A test substance was dissolved in HBS to prepare a 10-fold dilution series of evaluation concentrations. 80 μl, of the TAFIa solution and 10 μL of the test substance were added to each well of a 96-well plate and mixed by shaking for 10 minutes. 10 μL, of furylacryloyl-alanyl-lysine (FAAK) adjusted to 5 mg/mL was added to each well, and the change in the absorbance of this mixed solution at 330 nm was read for 30 minutes to determine the degradation rate of the substrate.
The degradation rate of the substrate in each well was applied to a standard curve prepared using the dilution series of the TAFIa solution to calculate TAFIa activity. The 50% inhibitory concentration (IC50) was calculated based on the correlation between the concentration of the test compound and the TAFIa activity. Compound A (compound of Example 7 in the pamphlet of International Publication No. WO 2002/014285) was used as a control.

[1] = system: iron chloride-induced thrombus models; details: mice, intravenous administration; cited from earlier work

| Compound | IC50 (TAFIa) [nM] | other results |
| --- | --- | --- |
| NCCCC(Cc1cn([C@@H]2C[C@H]3C[C@H]3C2)cn1)C(=O)O (mixture of isomers) [Example 6, (2RS)-5-Amino-2-({1-[(1R,3s,5S)-bicyclo[3.1.0]hexan-3-yl]-1H-imidazol-4-yl}methyl)valeric acid] | 21 |  |
| NCCCC(Cc1cn(C2CCCCCC2)cn1)C(=O)O (stereo not shown) [Example 10, 5-Amino-2-[(1-cycloheptyl-1H-imidazol-4-yl)methyl]valeric acid] | 21 |  |
| NCCCC(Cc1cn(C2CCCCC2)cn1)C(=O)O (stereo not shown) [Example 1, 5-Amino-2-[(1-cyclohexyl-1H-imidazol-4-yl)methyl]valeric acid] | 21 |  |
| NCCCC(Cc1cn([C@H]2CC3CCC2C3)cn1)C(=O)O (stereo partly drawn) [Example 12, 5-Amino-2-([1-[endo-bicyclo[2.2.1]hept-2-yl]-1H-imidazol-4-yl]methyl)valeric acid] | 25 |  |
| C[C@H]1CC[C@H](n2cnc(CC(C(=O)O)N3CC[C@H](N)C3)c2)CC1 (stereo partly drawn) [Example 26, 2-[(3S)-3-Aminopyrrolidin-1-yl]-3-[1-(trans-4-methylcyclohexyl)-1H-imidazol-4-yl]propionic acid] | 21 |  |
| NCCCC(Cc1cn([C@H]2CC[C@@H](O)CC2)cn1)C(=O)O (stereo partly drawn) [Example 37, 5-Amino-2-{[1-(cis-4-hydroxycyclohexyl)-1H-imidazol-4-yl]methyl}valeric acid] | 19 |  |
| C[C@H](CN)C[C@H](Cc1cn([C@H]2CC[C@H](C)CC2)cn1)C(=O)O [34(2R,4S form), (2R,4S)-5-Amino-4-methyl-2-{[1-(trans-4-methylcyclohexyl)-1H-imidazol-4-yl]methyl}valeric acid] | 34 |  |
| CC1(O)CCC(n2cnc(CC(CCCN)C(=O)O)c2)CC1 (stereo not shown) [Example 8, 5-Amino-2-{[1-(4-hydroxy-4-methylcyclohexyl)-1H-imidazol-4-yl]methyl}valeric acid] | 19 |  |
| C[C@@H](CN)C[C@H](Cc1cn([C@H]2CC[C@H](C)CC2)cn1)C(=O)O [35(2R,4R form), (2R,4R)-5-Amino-4-methyl-2-{[1-(trans-4-methylcyclohexyl)-1H-imidazol-4-yl]methyl}valeric acid] | > 100 |  |
| C[C@H]1CC[C@H](n2cnc(C[C@@H](CCCN)C(=O)O)c2)CC1 [15(2R form), (2R)-5-Amino-2-{[1-(trans-4-methylcyclohexyl)-1H-imidazol-4-yl]methyl}valeric acid] | > 100 |  |
| CC1CC(n2cnc(CC(CCCN)C(=O)O)c2)C1 (stereo not shown) [Example 5, 5-Amino-2-{[1-(3-methylcyclobutyl)-1H-imidazol-4-yl]methyl}valeric acid] | 36 |  |
| potato carboxypeptidase inhibitor (PCI): TAFIa-inhibiting polypeptide consisting of 39 amino acids (QQHADPICNKPCKTHDDCSGAWFCQACWNSARTCGPYVG; UniProt P01075 1-39, looked up) |  | antithrombotic effect [1]: antithrombotic effect |
| NCCCC(Cc1cn([C@H]2CC[C@H](O)CC2)cn1)C(=O)O (stereo partly drawn) [Example 7, 5-Amino-2-{[1-(trans-4-hydroxycyclohexyl)-1H-imidazol-4-yl]methyl}valeric acid] | 26 |  |

Second part, led by results:

| IC50 (TAFIa) [nM] | Compound | other results |
| --- | --- | --- |
| 7.8 | C[C@H]1CC[C@H](n2cnc(C[C@H](CCCN)C(=O)O)c2)CC1 [15(2S form), (2S)-5-Amino-2-{[1-(trans-4-methylcyclohexyl)-1H-imidazol-4-yl]methyl}valeric acid] | EC50 (normal human plasma): 12 nM |
| 9.3 | C[C@H]1CC[C@@H](n2cnc(CC(CCCN)C(=O)O)c2)CC1 (stereo partly drawn) [Example 39, 5-Amino-2-{[1-(cis-4-methylcyclohexyl)-1H-imidazol-4-yl]methyl}valeric acid] |  |
| 13 | NCCCC(Cc1cn([C@H]2CC[C@H](Oc3ccccc3)CC2)cn1)C(=O)O (stereo partly drawn) [Example 14, 5-Amino-2-{[1-(trans-4-phenoxycyclohexyl)-1H-imidazol-4-yl]methyl}valeric acid] |  |
| 5.4 | C[C@H](CN)C[C@@H](Cc1cn([C@H]2CC[C@H](C)CC2)cn1)C(=O)O [34(2S,4S form), (2S,4S)-5-Amino-4-methyl-2-{[1-(trans-4-methylcyclohexyl)-1H-imidazol-4-yl]methyl}valeric acid] |  |
| 18 | CC1CCCC(n2cnc(CC(CCCN)C(=O)O)c2)C1 (stereo not shown) [Example 9, 5-Amino-2-{[1-(3-methylcyclohexyl)-1H-imidazol-4-yl]methyl}valeric acid] |  |
| 14 | NCCCC(Cc1cn([C@@H]2CC3CCC2C3)cn1)C(=O)O (stereo partly drawn) [Example 11, 5-Amino-2-({1-[exo-bicyclo[2.2.1]hept-2-yl]-1H-imidazol-4-yl}methyl)valeric acid] |  |
| 7 | C[C@H](CN)OC(Cc1cn([C@H]2CC[C@H](C)CC2)cn1)C(=O)O (stereo partly drawn) [Example 25, 2-[(1R)-2-Amino-1-methylethoxy]-3-[1-(trans-4-methylcyclohexyl)-1H-imidazol-4-yl]propionic acid] |  |
| 8.3 | C[C@H]1CC[C@H](n2cnc(CC(CCCN)C(=O)O)c2)CC1 (stereo partly drawn) [Example 2, 5-Amino-2-{[1-(trans-4-methylcyclohexyl)-1H-imidazol-4-yl]methyl}valeric acid] |  |
| 5.1 | C[C@@H](CN)C[C@@H](Cc1cn([C@H]2CC[C@H](C)CC2)cn1)C(=O)O [35(2S,4R form), (2S,4R)-5-Amino-4-methyl-2-{[1-(trans-4-methylcyclohexyl)-1H-imidazol-4-yl]methyl}valeric acid] |  |
| 8.8 | CC[C@H]1CC[C@H](n2cnc(CC(CCCN)C(=O)O)c2)CC1 (stereo partly drawn) [Example 3, 5-Amino-2-{[1-(trans-4-ethylcyclohexyl)-1H-imidazol-4-yl]methyl}valeric acid] |  |
| 2.6 | C[C@H]1CC[C@H](n2cnc(C[C@H](CCCN)C(=O)O)c2)CC1 [Example 40, (2S)-5-Amino-2-{[1-(trans-4-methylcyclohexyl)-1H-imidazol-4-yl]methyl}valeric acid p-toluenesulfonate anhydrate] |  |
| 9.8 | NCCCC(Cc1cn([C@H]2CC[C@H](Oc3ccncc3)CC2)cn1)C(=O)O (stereo partly drawn) [Example 38, 5-Amino-2-({1-[trans-4-(pyridin-4-yloxy)cyclohexyl]-1H-imidazol-4-yl}methyl)valeric acid hydrochloride] |  |
| 12 | NCCCC(Cc1cn(C2C3CC4CC(C3)CC2C4)cn1)C(=O)O (stereo not shown) [Example 13, 2-[(1-Adamantan-2-yl-1H-imidazol-4-yl)methyl]-5-aminovaleric acid] |  |
| 8.1 | C[C@H]1CC[C@H](n2cnc(CC(OCCN)C(=O)O)c2)CC1 (stereo partly drawn) [Example 24, 2-(2-Aminoethoxy)-3-[1-(trans-4-methylcyclohexyl)-1H-imidazol-4-yl]propionic acid] |  |
| 14 | CCC1CC(n2cnc(CC(CCCN)C(=O)O)c2)C1 (stereo not shown) [Example 4, 5-Amino-2-{[1-(3-ethylcyclobutyl)-1H-imidazol-4-yl]methyl}valeric acid] |  |
| 10 | CCC(CN)CC(Cc1cn([C@H]2CC[C@H](C)CC2)cn1)C(=O)O (stereo partly drawn) [Example 36, 4-(Aminomethyl)-2-{[1-(trans-4-methylcyclohexyl)-1H-imidazol-4-yl]methyl}hexanoic acid hydrochloride] |  |
| 7.5 | CC1(C)CCCC(n2cnc(CC(CCCN)C(=O)O)c2)C1 (stereo not shown) [Example 33, 5-Amino-2-{[1-(3,3-dimethylcyclohexyl)-1H-imidazol-4-yl]methyl}valeric acid] |  |
